Tests used:
[1] = test system: patients with advanced mutation-positive EGFR (Ex19del or L858R) NSCLC; details: cited from earlier work
[2] = test system: stage IB-IIIA EGFRm NSCLC patients; assay: ADAURA phase 3 double-blind, randomized, placebo-controlled study of adjuvant AZD9291 after complete tumour resection; type: in vivo, human; details: for DFS HR (95% CI) / reduction in the risk of disease recurrence or death: osimertinib vs placebo
Method: Adjuvant chemotherapy should have consisted of a platinum based doublet given for a maximum of 4 cycles.
Patients were randomised 1:1, to receive either AZD9291 or placebo. […] Patients were randomised within 10 weeks following complete surgical resection if adjuvant chemotherapy was not administered, within 26 weeks following surgery if adjuvant chemotherapy was administered.
Accounting for patients who are found to have wild type EGFR, sample attrition and 10% screen fail rate for other reasons, it was estimated that approximately 3200 patients would be screened to randomize approximately 700 patients. Approximately 60% of patients were recruited from Asia and 40% from non-Asian countries. The proportion of patients randomized with stage 1B cancer was approximately 30% and the proportion of patients randomized with stage II-IIIA cancer was approximately 70%. Patients were stratified at randomization by stage (IB vs II vs IIIA), mutation type (Ex19Del/L858R either alone or in combination with other EGFR mutations) as confirmed by a central laboratory using a tissue based test, and race (Asian/non-Asian).
Patients undergo regular CT scan (chest and abdomen including liver and adrenal glands) with additional anatomy imaging, as indicated by signs and symptoms of the patient, for disease recurrence. Disease free survival (DFS) shall be measured from the date of randomization until date of disease recurrence or death (from any cause) in the absence of recurrence by investigational site assessment.
Male and female patients aged 18 years and over (patients from Japan/Taiwan aged at least 20 years) with histologically confirmed diagnosis of primary non-squamous non-small cell carcinoma of the lung, with complete surgical resection of the primary tumour, and who were classified post-operatively as stage IB, II or IIIA on the basis of pathologic criteria were eligible for this study (stage IB patients were excluded in Japan). Recruitment of patients with stage IB disease was closed when approximately 210 (30%) had been randomized and recruitment of patients with stage II-IIIA disease was closed when approximately […] (70%) had been randomized. Patients were confirmed to have a tumour that harbours one of the most common EGFR mutations known to be associated with EGFR-TKI sensitivity (Ex19Del; L858R) either alone or in combination with other EGFR mutations as confirmed by a central test.
Treatment with AZD9291 (80 mg once daily) or placebo commenced following randomization. Patients will continue on randomised treatment until recurrence of disease, treatment discontinuation criterion is met or treatment is completed.
AZD9291 (80 mg orally, once daily) or matching placebo, in accordance with the randomization schedule, was administered.
Disease-free survival is the primary endpoint in this study and is defined as the time from the date of randomization until the date of disease recurrence or death from any cause in the absence of disease recurrence. Disease recurrence is defined as evidence of disease recurrence on CT or MRI scan and/or pathological disease on biopsy by investigational site assessment. The primary population is the stage II/IIIA patients.
DFS rate at 2, 3, 4 and 5 years is defined as the proportion of patients alive and disease free at 2, 3, 4 and 5 years, respectively, estimated from Kaplan Meier plots of the primary endpoint of DFS at the time of the primary analysis.
DFS in the subset of patients with stage II-IIIA cancer will be analysed using a log rank test stratified by stage (II, IIIA), mutation type (Ex19Del, L858R either alone or in combination with other EGFR mutations) and race (Asian, Non-Asian) for the generation of the p-value and using the Breslow approach for handling ties.

[3] = patients with CNS metastases on a baseline brain scan, vs standard EGFR-TKIs
[4] = Stage IB/II/IIIA (overall population)
[5] = Stage IB/II/IIIA (overall population), listed as osimertinib
[6] = Stage II/IIIA patient population, immature OS (5% maturity)

## C=CC(=O)Nc1cc(Nc2nccc(-c3cn(C)c4ccccc34)n2)c(OC)cc1N(C)CCN(C)C [Osimertinib, N-(2-{2-dimethylaminoethyl-methylamino}-4-methoxy-5-{[4-(1-methylindol-3-yl)pyrimidin-2-yl]amino}phenyl) prop-2-enamide]
[1]; first-line therapy
  median overall survival: 38.6 months
  median progression free survival (PFS): 18.9 months
[1]; irrespective of known or treated CNS metastases at trial entry
  events of CNS progression, % patients: 6%
[1]; osimertinib vs comparator group
  hazard ratio for death: 0.80
[1]; osimertinib vs erlotinib or gefitinib
  PFS hazard ratio (HR): 0.46
[1]; patients with CNS metastases on a baseline brain scan
  median CNS PFS: not reached
[1]; [3]
  CNS PFS HR: 0.48
  reduction in the risk of CNS progression: 52%
[2]; Adjuvant chemotherapy received
  2 year DFS rate, % (95% CI): 88.3%
[2]; No adjuvant chemotherapy
  2 year DFS rate, % (95% CI): 89.2%
[2]; Stage IB
  2 year DFS rate, % (95% CI): 87 (77, 93) %
  Median DFS, months (95% CI): NR (NC, NC)
  DFS HR (95% CI): 0.50 (0.27, 0.94)
[2]; [4]
  2 year DFS rate, % (95% CI): 88.8%
  DFS HR (95% CI): 0.21 (0.16, 0.28);
[2]; [5]
  2 year DFS rate, % (95% CI): 89%
  DFS HR (95% CI): 0.21
[2]; Stage II
  2 year DFS rate, % (95% CI): 91 (82, 95)^ %
  Median DFS, months (95% CI): NR (NC, NC)
  DFS HR (95% CI): 0.17 (0.08, 0.31)
[2]; Stage II-IIIA
  2 year DFS rate, % (95% CI): 89.5%
  DFS HR (95% CI): 0.17 (0.12, 0.23);
[2]; [6]
  deaths (% of patients): 3%
  deaths (number of patients): 8 deaths
[2]; Stage IIIA
  2 year DFS rate, % (95% CI): 88 (79, 94)^ %
  Median DFS, months (95% CI): 38.8 (38.6, NC)^ months
  DFS HR (95% CI): 0.12 (0.07, 0.20)
[2]; immature OS (5% maturity)
  overall survival (in words): trend towards survival favouring osimertinib
[2]; Stage II-IIIA, listed as osimertinib
  DFS HR (95% CI): 0.17 (0.12, 0.23)
[2]; adjuvant chemotherapy received
  DFS HR (95% CI): 0.17
[2]; no adjuvant chemotherapy
  DFS HR (95% CI): 0.17
[2]; overall population
  reduction in the risk of disease recurrence or death: 79%
[2]; primary population of stage II/IIIA patients
  reduction in the risk of disease recurrence or death: 83%
[2]; regardless of whether patients received prior adjuvant chemotherapy
  improvement in DFS (in words): consistent improvement in DFS
[2]; stage IB/II/IIIA EGFRm NSCLC, adjuvant setting
  improvement in disease free survival (DFS) (in words): statistically significant and clinically meaningful improvement

— patent US20250325543A1, “EGFR TKIs FOR USE IN THE TREATMENT OF NON-SMALL LUNG CANCER” (ASTRAZENECA AB, priority 2020, published 2025)
